Values of other authors as cited in patent US11813363B1, “Concentrated nutritional or supplemental compound for intestinal, gut-brain axis and neurobiological homeostasis through calibrated absorption including neurotransmitter or any equilibrating compound release to treat or mitigate disease and co-morbidities, particularly obesity and malnourishment” (priority 2022, dated 2023).

Settings: oral ingestion; reddish-orange color of urine

## Cl.Nc1ccc(/N=N/c2ccccc2)c(N)n1 [phenazopyridine, phenazopyridine hydrochloride]
  time to visible urine color change after ingestion (earliest): ≥ 20 min
  time to visible urine color change after ingestion (latest): within one hour
